{"source": "paper PMC9138505", "about": "“Small Molecule 20S Proteasome Enhancer Regulates MYC Protein Stability and Exhibits Antitumor Activity in Multiple Myeloma” (Biomedicines, 2022)", "tested_on": "RPMI-8226 cells", "assay": "Gene expression profiling, NanoString nCounter PanCancer Pathways Panel, ROSALIND analysis", "format": "cell-based, human", "conditions": "RPMI-8226, TCH-165 samples 1-3", "experimental": "RPMI-8226 cells were treated with vehicle or TCH-165 (10 μM) for 4 h. Total RNA was obtained using the mirVana miRNA Isolation Kit, with phenol (Thermofisher Scientific; AM1560; Waltham, MA, USA). Total RNA was quantified by Qubit (Thermofisher Scientific; Q32855; Waltham, MA, USA). and gene expression was evaluated against the nCounter® PanCancer Pathways Panel^TM according to the standard NanoString protocol.\nData were analyzed by ROSALIND® [36] with a hyperscale architecture developed by ROSALIND, Inc. (San Diego, CA, USA). Normalization, fold changes and p-values were calculated using criteria provided by NanoString. ROSALIND follows the nCounter® Advanced Analysis protocol of dividing counts within a lane by the geometric mean of the normalizer probes from the same lane. Housekeeping probes to be used for normalization are selected based on the geNorm algorithm, as implemented in the NormqPCR R library. Fold changes and p-values are calculated using the fast method as described in the nCounter Advanced Analysis 2.0 User Manual. The p-value adjustment is performed using the Benjamini–Hochberg method of estimating false discovery rates (FDR). Clustering of genes for the final heatmap of differentially expressed genes was done using the PAM (Partitioning Around Medoids) method using the fpc R library. Hypergeometric distribution was used to analyze the enrichment of pathways, gene ontology, domain structure and other ontologies. The topGO R library was used to determine local similarities and dependencies between GO terms in order to perform Elim pruning correction. Several database sources were referenced for enrichment analysis, including Interpro [40], NCBI [41], MSigDB [42, 43], REACTOME [44], WikiPathways. Enrichment was calculated relative to a set of background genes relevant to the experiment.", "note": "“And” between values parts separate entries of the source, which are not always exact repeats. Equal values may be shown once."}
{"smiles": "CCOC(=O)[C@]1(c2ccccc2)N=C(c2ccc(OC)cc2)N(Cc2ccccc2)[C@@H]1c1ccc(NCc2ccccc2)cc1", "note": "[TCH-165]", "values": [{"measurement": "RPA3 normalized gene expression", "value": "6.234 and 6.077 and 5.975"}, {"measurement": "RPS6KA5 normalized gene expression", "value": "8.162 and 8.249 and 8.109"}, {"measurement": "RPS6KA6 normalized gene expression", "value": "4.308 and 4.154 and 4.653"}, {"measurement": "RPS27A normalized gene expression", "value": "16.3114 and 16.3789 and 16.3612"}, {"measurement": "RRAS2 normalized gene expression", "value": "6.59 and 6.242 and 6.0682"}, {"measurement": "RUNX1T1 normalized gene expression", "value": "4.649 and 5.3768 and 5.0682"}, {"measurement": "RUNX1 normalized gene expression", "value": "7.156 and 7.154 and 7.31"}, {"measurement": "RXRG normalized gene expression", "value": "5.758 and 5.569 and 5.1271"}, {"measurement": "SETBP1 normalized gene expression", "value": "9.152 and 8.96 and 8.955"}, {"measurement": "SETD2 normalized gene expression", "value": "9.224 and 9.1619 and 9.096"}, {"measurement": "SF3B1 normalized gene expression", "value": "10.9301 and 10.7965 and 10.7773"}, {"measurement": "SFN normalized gene expression", "value": "7.723 and 7.476 and 7.668"}, {"measurement": "SFRP1 normalized gene expression", "value": "5.401 and 5.0613 and 4.731"}, {"measurement": "SFRP2 normalized gene expression", "value": "4.723 and 4.427 and 4.613"}, {"measurement": "SFRP4 normalized gene expression", "value": "1.986 and 2.3768 and 2.483"}, {"measurement": "SGK2 normalized gene expression", "value": "4.401 and 4.324 and 4.0682"}, {"measurement": "SHC1 normalized gene expression", "value": "10.583 and 10.7262 and 10.7216"}, {"measurement": "SHC2 normalized gene expression", "value": "3.723 and 3.962 and 3.653"}, {"measurement": "SHC3 normalized gene expression", "value": "6.308 and 6.364 and 6.251"}, {"measurement": "SIN3A normalized gene expression", "value": "9.8539 and 9.738 and 9.646"}, {"measurement": "SIRT4 normalized gene expression", "value": "5.156 and 4.739 and 5.238"}, {"measurement": "SIX1 normalized gene expression", "value": "3.571 and 3.3768 and 4.1271"}, {"measurement": "SKP1 normalized gene expression", "value": "12.8613 and 12.7826 and 12.7408"}, {"measurement": "SKP2 normalized gene expression", "value": "8.831 and 8.717 and 8.705"}, {"measurement": "SMAD2 normalized gene expression", "value": "9.453 and 9.37 and 9.493"}, {"measurement": "SMAD3 normalized gene expression", "value": "6.723 and 6.646 and 6.759"}, {"measurement": "SMAD4 normalized gene expression", "value": "9.445 and 9.475 and 9.381"}, {"measurement": "SMAD9 normalized gene expression", "value": "4.208 and 3.657 and 4.238"}, {"measurement": "SMARCA4 normalized gene expression", "value": "10.8723 and 10.9931 and 10.958"}, {"measurement": "SMARCB1 normalized gene expression", "value": "9.431 and 9.4165 and 9.399"}, {"measurement": "SMC1A normalized gene expression", "value": "10.4464 and 10.4079 and 10.3505"}, {"measurement": "SMC1B normalized gene expression", "value": "4.401 and 3.739 and 3.731"}, {"measurement": "SMC3 normalized gene expression", "value": "10.9533 and 10.9237 and 10.9519"}, {"measurement": "SMO normalized gene expression", "value": "5.986 and 5.657 and 5.341"}, {"measurement": "SOCS1 normalized gene expression", "value": "6.892 and 6.769 and 6.683"}, {"measurement": "SOCS2 normalized gene expression", "value": "5.955 and 5.476 and 5.5707"}, {"measurement": "SOCS3 normalized gene expression", "value": "5.827 and 5.351 and 5.613"}, {"measurement": "SOS1 normalized gene expression", "value": "8.45 and 8.321 and 8.235"}, {"measurement": "SOS2 normalized gene expression", "value": "7.434 and 7.338 and 7.36"}, {"measurement": "SOST normalized gene expression", "value": "3.86 and 3.3768 and 3.805"}, {"measurement": "SOX9 normalized gene expression", "value": "5.044 and 5.093 and 4.731"}, {"measurement": "SP1 normalized gene expression", "value": "7.695 and 7.694 and 7.736"}, {"measurement": "SPOP normalized gene expression", "value": "6.308 and 6.324 and 6.0531"}, {"measurement": "SPP1 normalized gene expression", "value": "11.9193 and 11.8738 and 11.9244"}, {"measurement": "SPRY1 normalized gene expression", "value": "4.308 and 4.154 and 4.184"}, {"measurement": "SPRY2 normalized gene expression", "value": "5.793 and 5.154 and 5.0682"}, {"measurement": "SRSF2 normalized gene expression", "value": "10.5286 and 10.321 and 10.2662"}, {"measurement": "SSX1 normalized gene expression", "value": "4.571 and 4.614 and 4.341"}, {"measurement": "STAG2 normalized gene expression", "value": "11.0854 and 11.0452 and 11.0734"}, {"measurement": "STAT1 normalized gene expression", "value": "8.92 and 8.846 and 9.0757"}, {"measurement": "STAT3 normalized gene expression", "value": "9.132 and 9.111 and 9.089"}, {"measurement": "STAT4 normalized gene expression", "value": "7.259 and 7.045 and 7.149"}, {"measurement": "STK11 normalized gene expression", "value": "7.868 and 7.592 and 7.623"}, {"measurement": "STMN1 normalized gene expression", "value": "12.569 and 12.5392 and 12.5363"}, {"measurement": "SYK normalized gene expression", "value": "10.2633 and 10.2568 and 10.1565"}, {"measurement": "TCF3 normalized gene expression", "value": "9.548 and 9.673 and 9.547"}, {"measurement": "TCL1B normalized gene expression", "value": "2.986 and 2.569 and 2.943"}, {"measurement": "TET2 normalized gene expression", "value": "7.142 and 7.021 and 6.918"}, {"measurement": "TFDP1 normalized gene expression", "value": "10.7659 and 10.7019 and 10.7109"}, {"measurement": "TGFB1 normalized gene expression", "value": "8.78 and 8.675 and 8.641"}, {"measurement": "TGFB2 normalized gene expression", "value": "3.86 and 3.27 and 3.943"}, {"measurement": "TGFB3 normalized gene expression", "value": "4.986 and 4.891 and 4.483"}, {"measurement": "TGFBR2 normalized gene expression", "value": "7.169 and 7.004 and 6.787"}, {"measurement": "THBS1 normalized gene expression", "value": "5.445 and 4.927 and 4.769"}, {"measurement": "THBS4 normalized gene expression", "value": "3.208 and 2.569 and 3.291"}, {"measurement": "TIAM1 normalized gene expression", "value": "5.793 and 5.476 and 5.414"}, {"measurement": "TLR2 normalized gene expression", "value": "6.355 and 5.855 and 5.876"}, {"measurement": "TLR4 normalized gene expression", "value": "8.52 and 8.18 and 8.197"}, {"measurement": "TLX1 normalized gene expression", "value": "3.86 and 4.427 and 4.1271"}, {"measurement": "TMPRSS2 normalized gene expression", "value": "6.182 and 6.093 and 6.1126"}, {"measurement": "TNC normalized gene expression", "value": "4.723 and 4.7789 and 4.39"}, {"measurement": "TNF normalized gene expression", "value": "4.986 and 4.817 and 5.0682"}, {"measurement": "TNFAIP3 normalized gene expression", "value": "7.658 and 7.488 and 7.528"}, {"measurement": "TNFRSF10A normalized gene expression", "value": "7.986 and 7.827 and 7.893"}, {"measurement": "TNFRSF10B normalized gene expression", "value": "6.61 and 6.5 and 6.602"}, {"measurement": "TNFRSF10C normalized gene expression", "value": "4.101 and 3.891 and 3.943"}, {"measurement": "TNFRSF10D normalized gene expression", "value": "6.827 and 6.476 and 6.461"}, {"measurement": "TNFSF10 normalized gene expression", "value": "8.202 and 8.1619 and 8.225"}, {"measurement": "TNR normalized gene expression", "value": "5.686 and 5.297 and 5.5707"}, {"measurement": "TP53 normalized gene expression", "value": "10.0117 and 9.981 and 9.929"}, {"measurement": "TPO normalized gene expression", "value": "4.924 and 5.184 and 5.156"}, {"measurement": "TSC1 normalized gene expression", "value": "8.714 and 8.273 and 8.399"}, {"measurement": "TSHR normalized gene expression", "value": "4.649 and 4.476 and 4.39"}, {"measurement": "TSPAN7 normalized gene expression", "value": "6.776 and 6.891 and 6.539"}, {"measurement": "TTK normalized gene expression", "value": "9.89 and 9.8374 and 9.804"}, {"measurement": "U2AF1 normalized gene expression", "value": "12.4063 and 12.4515 and 12.4562"}, {"measurement": "UBB normalized gene expression", "value": "12.5802 and 12.4733 and 12.4875"}, {"measurement": "UBE2T normalized gene expression", "value": "10.5402 and 10.5496 and 10.5687"}, {"measurement": "UTY normalized gene expression", "value": "3.86 and 4.093 and 4.0682"}, {"measurement": "VEGFA normalized gene expression", "value": "10.7951 and 10.7989 and 10.8309"}]}
